Laboratory results as given in US12251382B2, “Substituted amino-pyrimidine compound for use in a method for treatment and prevention of multiple sclerosis” (Merck Patent GmbH, priority 2018, dated 2025).

Key:
RA and SLE models = conditions: in vivo; cited from earlier work
[1] = system: human patients suffering from relapsing multiple sclerosis (RMS); assay: Phase II RMS study: brain MRI (Gd+ T1 lesions, T2 lesions); format: in vivo; set-up: key to Gd+ T1 lesion rate (subject level), Median / Gd+ T1 Lesion rate, adjusted (negative binomial model): number of Gd+ T1 lesions per scan; conditions: for New or enlarging T2 lesion rate (subject level), Mean ± SD: Weeks 12-24; for Difference in LS means of CFB in cube root of volume of T2 lesions vs placebo: week 24, MMRM
Protocol: The assessing Investigator and central MRI reader were treatment blinded.
The protocol specified that subjects self-administered the IMP at a set time each day (every 12 hours ±2 hours). Subjects were to take their daily dose more than 1 hour prior to a meal or snack and more than 2 hours after a meal or snack. Clear fluids were allowed at any time. On trial visit days, the IMP was to be administered during the trial visit after the scheduled trial visit procedures (other than post-treatment PK/PD sampling) are completed.
Stratification occurred by region (USA or Western Europe, Eastern Europe and BTKO capable, Eastern Europe and not BTKO capable, and RoW). For the first 7 days, Tecfidera was administered orally at 120 mg twice daily. Following this and for the duration of treatment, Tecfidera was administered orally at 240 mg twice daily.
The protocol specified that MRI scans were to be performed at Screening, at 4-week intervals from Week 12 to 24, and at the End of Treatment Visit at Week 48 (including for subjects receiving Tecfidera who choose to enter the OLE Period). […] If a subject discontinued the study more than 4 weeks after his or her most recent MRI, the protocol specified that an MRI may be obtained at the 4-week Safety Follow-up Visit. The Screening MRI scan was to be acquired before randomization and dosing to allow for the readouts to be read by the central MRI reader (approximately 7 days).
Gadolinium was used to enhance T1-weighted lesions and to optimize clarity and accuracy of reporting. As gadolinium is excreted renally, subjects with acute renal insufficiency (eGFR <45 mL/min/1.73 m^2) will be excluded from the trial.
The protocol specified that brain MRI scans were performed according to a standardized imaging protocol before and after the administration of single-dose gadolinium. Images were assessed and reported by an independent, blinded, centralized MRI reading service, provided by NeuroRx Research. The assessment was performed in the absence of clinical information. Further details, including the scans required and the optimal MRI workflow, were provided in a separate Imaging Manual provided to each trial site by NeuroRx Research. All MRI images were reviewed and reported locally by a radiologist for safety. The local report was to contain only non-MS pathology and was to be provided to the Treating Investigator.
The primary endpoint was the total number of gadolinium-enhancing T1 lesions at Week 12, 16, 20, and 24. The primary analysis was a comparison of each evobrutinib dose arm versus placebo based on this endpoint, with a supportive test for dose-response. Secondary Endpoints
Other covariates were permitted to be considered. […] Descriptive statistics for the total number of Gd+ T1 lesions, at Week 12, 16, 20, and 24, are provided for each treatment group.
Estimation of mean per-scan number of Gd+ T1 lesions at Weeks 12, 16, 20, and 24, for each treatment group, was based on the NB model. In the analysis of each secondary endpoint, other covariates were permitted to be included in the model.
Primary and secondary efficacy endpoints were analysed based on the modified intention-to-treat (mITT) analysis set, consisting of all randomized patients with at least one available baseline and one post-baseline MRI assessment. […] For each endpoint, rate ratio (RR; null-hypothesis RR=1.0) adjusted for baseline disease activity was reported together with associated 95% CI and p-value. The T2 lesion endpoint was analysed similarly. Dose-response relationships between evobrutinib treatment dose and primary and key secondary endpoints were assessed for linear and monotonic trend. The analysis of CFB in cube root of volume of T2 lesions at Week 24 was based on a mixed-effect model for repeated measures, with fixed effects for treatment, week of visit, and treatment-by-week interaction, random effect for subject, and adjustment for baseline cube root of lesion volume. CFB in SF-36 score at Week 24 was analysed similarly. […]

M1 macrophages = conditions: in vitro; cited from earlier work
[2] = 25 mg QD, listed as evobrutinib
[3] = 75 mg BID, listed as evobrutinib

C=CC(=O)N1CCC(CNc2ncnc(N)c2-c2ccc(Oc3ccccc3)cc2)CC1 [Evobrutinib, 1-(4-(((6-amino-5-(4-phenoxyphenyl)pyrimidin-4-yl)amino)methyl)piperidin-1-yl)prop-2-en-1-one]
Activity in RA and SLE models (RA and SLE models): robust activity
Change in volume of T2 lesions from baseline to week 24, Mean ± SD ([1]; 25 mg QD): 0.93 ± 1.85 cc
Change in volume of T2 lesions from baseline to week 24, Median ([1]; 25 mg QD): 0.05 cc
Gd+ T1 Lesion rate, adjusted (negative binomial model) ([1]; 25 mg QD): 1.09
Gd+ T1 lesion rate (subject level), Median ([1]; 25 mg QD): 0.25
Gd+ T1 lesion rate (subject level; count per scan, weeks 12-24), Mean ± SD ([1]; 25 mg QD): 1.31 ± 3.13
Total Number of New or Enlarging T2 Lesions at Week 24, Mean ± SD ([1]; 25 mg QD): 6.52 ± 11.57
Total number of Gd+ T1 lesions at Weeks 12, 16, 20, 24, Mean ± SD ([1]; 25 mg QD): 5.23 ± 12.52
Total number of Gd+ T1 lesions at Weeks 12, 16, 20, 24, Median (min-max) ([1]; 25 mg QD): 1 (0-76)
New or enlarging T2 lesion rate (subject level), Mean ± SD ([1]; 25 mg QD): 2.08 ± 4.19
Difference in LS means of CFB in cube root of volume of T2 lesions vs placebo ([1]; 25 mg QD): 0.05 cm
Change in volume of T2 lesions from baseline to week 24, Median [1, 2]: increased
Gd+ T1 lesion rate (subject level; count per scan, weeks 12-24), Mean ± SD [1, 2]: 1.31±3.13
Change in volume of T2 lesions from baseline to week 24, Mean ± SD ([1]; 75 mg BID): 0.06 ± 0.50 cc
Change in volume of T2 lesions from baseline to week 24, Median ([1]; 75 mg BID): −0.02 cc
Gd+ T1 Lesion rate, adjusted (negative binomial model) ([1]; 75 mg BID): 0.34
Gd+ T1 lesion rate (subject level), Median ([1]; 75 mg BID): 0.0
Gd+ T1 lesion rate (subject level; count per scan, weeks 12-24), Mean ± SD ([1]; 75 mg BID): 0.35 ± 0.96
Total Number of New or Enlarging T2 Lesions at Week 24, Mean ± SD ([1]; 75 mg BID): 2.26 ± 4.72
Total number of Gd+ T1 lesions at Weeks 12, 16, 20, 24, Mean ± SD ([1]; 75 mg BID): 1.39 ± 3.85
Total number of Gd+ T1 lesions at Weeks 12, 16, 20, 24, Median (min-max) ([1]; 75 mg BID): 0 (0-25)
New or enlarging T2 lesion rate (subject level), Mean ± SD ([1]; 75 mg BID): 0.73 ± 1.57
New or enlarging T2 lesion rate (subject level), Mean ± SD [1, 3]: 0.73±1.57
Difference in LS means of CFB in cube root of volume of T2 lesions vs placebo ([1]; 75 mg BID): −0.35 cm
Gd+ T1 lesion rate (subject level; count per scan, weeks 12-24), Mean ± SD [1, 3]: 0.35±0.96
Change in volume of T2 lesions from baseline to week 24, Mean ± SD ([1]; 75 mg QD): 0.01 ± 0.57 cc
Change in volume of T2 lesions from baseline to week 24, Median ([1]; 75 mg QD): −0.01 cc
Gd+ T1 Lesion rate, adjusted (negative binomial model) ([1]; 75 mg QD): 0.27
Gd+ T1 lesion rate (subject level), Median ([1]; 75 mg QD): 0.0
Gd+ T1 lesion rate (subject level; count per scan, weeks 12-24), Mean ± SD ([1]; 75 mg QD): 0.42 ± 1.17
Total Number of New or Enlarging T2 Lesions at Week 24, Mean ± SD ([1]; 75 mg QD): 3.57 ± 10.82
Total number of Gd+ T1 lesions at Weeks 12, 16, 20, 24, Mean ± SD ([1]; 75 mg QD): 1.69 ± 4.69
Total number of Gd+ T1 lesions at Weeks 12, 16, 20, 24, Median (min-max) ([1]; 75 mg QD): 0 (0-27)
Total number of Gd+ T1 lesions versus placebo ([1]; 75 mg QD and 75 mg BID, Weeks 12, 16, 20 and 24): significantly reduced Gd+ T1 lesions versus placebo
New or enlarging T2 lesion rate (subject level), Mean ± SD ([1]; 75 mg QD): 0.89 ± 2.71
Difference in LS means of CFB in cube root of volume of T2 lesions vs placebo ([1]; 75 mg QD): −0.35 cm
Gd+ T1 lesion rate (subject level; count per scan, weeks 12-24), Mean ± SD ([1]; 75 mg QD, listed as evobrutinib): 0.42±1.17
Total Gd+ T1 lesions over 4 scans in an outlier patient ([1]; one patient, 25 mg QD): 76
Dose response of Gd+ T1 lesion count ([1]; weeks 12-24, p<0.01): significant dose response was observed
Effects on macrophages (M1 macrophages): inhibiting the activation, differentiation and polarisation of M1 macrophages and by promoting the M2 macrophage-phenotype
